According to patent publication US20250275539A1, “APYRASE INHIBITORS” (Texas Crop Science, Inc., priority 2024, published 2025):
Like-named read-outs stand apart in the source and are kept apart here.

What was measured:
apyrase = assay: Apyrase inhibition assay (screen for apyrase inhibitors, phosphate release read at 630 nm); type: biochemical; details: inhibitor conc at 1 mM (10 μl added), 3 mM ATP, pH 6.5, room temperature 1 hr
Procedure: Apyrase inhibitors useful as enhancers of pesticidal activity are assessed using an in vitro assay. The method of Windsor, Bio Techniques 33:1024-1030 (November 2002) was used as follows
• 96 well plates were used for the assay: (Greiner bio-one: REF-655901-96 well, PS, F-bottom, Clear, Non-binding)
• Reaction Buffer: 60 mM Hepes; 3 mM MgCl2, 3 mM CaCl2) and 3 mM ATP (pH 6.5) • Development Buffer A: 2% aqueous ammonium molybdate • Development Buffer B: 11% ascorbic acid in 37.5% TCA in water • Stop buffer C: 2% trisodium citrate in 2% acetic acid solution in water
• Add 100 μl of reaction buffer to each well. • Add 10 μl of DMSO (control) or inhibitor/compound or compounds such as N1915 or orthovanadate to each well. (use inhibitor conc at 1 mM; orthovanadate at 2 mM and N1915 at 1 mM) • Add 10 μl of apyrase (concentration based on optimization—Dilute 1 U/μl enzyme to different concentrations such as 0.1 U, 0.05 U, 0.0025, 0.001 U, 0.0005 U—to find a good range) • Incubate plate at room temperature for 1 hr • Mix development buffer A and B in the ratio of 1:1.5 (just before use). • Add 50 μl of A: B mix in each well (incubate for 2 mins) • Add 50 μl of C in each well • Measure/Read Absorbance of plate @630 nm
Inhibitory data for the apyrase assay described above are provided for selected compounds in Table 3. D is inhibition of 0% to 10%, C is inhibition from 10% to 20%, B is inhibition from 20% to 30%, and A is inhibition above 30%. Blank entries signify compounds that were not tested.

[1] = tested on: Brown Rust (Puccinia recondita) on wheat; assay: Greenhouse crop test: control of Brown Rust on wheat in combination with commercial fungicides; type: in vivo; details: wheat JB Diego, inoculated 24 hours after treatment, evaluated at fourteen days; for Amistar (% control of the disease, compound + fungicide): with Amistar 0.04 L/ha; for Balaya (% control of the disease, compound + fungicide): with Balaya 0.25 L/ha; for Imtrex (% control of the disease, compound + fungicide): with Imtrex 0.45 L/ha; for Proline (% control of the disease, compound + fungicide): with Proline 0.15 L/ha
Procedure: In this method, exemplary compounds were evaluated for their ability to control Brown Rust (Puccinia recondita) on wheat in a controlled greenhouse environment in combination with one of four fungicides, Amistar, Imtrex, Proline or Balaya. In these studies, wheat plants (JB Diego) were used. Seeds were sown in 9 cm diameter pots to a depth of 1 to 2 cm using Petersfield potting compost (75% medium grade peat, 12% screened sterilized loam, 3% medium grade vermiculite, 10% grit (5 mm screened, lime free), 1.5 kg PG mix per m3, lime to pH5.5-6.0 and wetting agent (Vitax Ultrawet 200 ml per m3) and germinated/grown at 23 C under a 16 h day/8 h night light regime. Plants were treated two to three weeks after sowing when they were at the BBCH 11 growth stage ([…]). Wheat plants were inoculated with Puccinia triticina (Brown rust) 24 hours after treatment. A track sprayer was used to treat the plants with the mixture of commercial fungicide and test compound using a water volume of 200 L/ha. Four replicates were used for each combination of fungicide, pathogen and test compound. Each plant was evaluated at fourteen days (once the disease symptoms were fully expressed) for % control of the disease. Appropriate controls were used for all experiments, including an ‘inoculation check’ wherein plants were inoculated with their specific pathogen to assess disease levels. Also, each commercial fungicide was tested on its own as a part of each treatment, this being benchmark against which the experimental compounds were evaluated. […] That is, the present compounds, although not fungicidal by themselves, enhance the activity of fungicides, thus the enhancer compounds work synergistically in combination with fungicides to control disease. • Amistar (0.04 L/ha) • Imtrex (0.45 L/ha) • Proline (0.15 L/ha) • Balaya (0.25 L/ha)

[2] = tested on: Amaranthus retroflexus (pigweed); assay: Enhancement of herbicide activity: pre-emergence Amaranthus kill with metribuzin; type: in vivo; details: Amaranthus retroflexus
Procedure: Specifically, Amaranthus retroflexus (pigweed) was treated pre-emergence with metribuzin alone or in combination with an enhancer compound disclosed herein. Fifteen seeds of Amaranthus retroflexus were sown in soil in each pot and then sprayed with a mixture of metribuzin at the appropriate rate shown in Table 5 and the compound of this invention at 100 g/ha using a track sprayer at a water volume of 200 L/hectare. Small amounts of acetone were used to aid solubility. The pots were watered immediately after sowing and treatment and then allowed to stand in a glasshouse. Assessment of kill was made seven and fourteen days after treatment. The test included four replicates for each treatment and the control.

Inhibition (apyrase) | SMILES | further results
 | CSc1nnc(C(C)(C)C)c(=O)n1N [None (metribuzin only), metribuzin, reference compound] | pest or weed control at 100 g/ha ([2]; 168 h, read-out: Pre-Emergence Amaranthus Kill Percentage, Assessed 7 DAT, Metribuzin rate 50 g/ha): 0%; pest or weed control at 100 g/ha ([2]; 168 h, read-out: Pre-Emergence Amaranthus Kill Percentage, Assessed 7 DAT, Metribuzin rate 100 g/ha): 15.2%; pest or weed control at 100 g/ha ([2]; 168 h, read-out: Pre-Emergence Amaranthus Kill Percentage, Assessed 7 DAT, Metribuzin rate 200 g/ha): 60.9%; pest or weed control at 100 g/ha ([2]; 336 h, read-out: Pre-Emergence Amaranthus Kill Percentage, Assessed 14 DAT, Metribuzin rate 50 g/ha): 7.7%; pest or weed control at 100 g/ha ([2]; 336 h, read-out: Pre-Emergence Amaranthus Kill Percentage, Assessed 14 DAT, Metribuzin rate 100 g/ha): 38.3%; pest or weed control at 100 g/ha ([2]; 336 h, read-out: Pre-Emergence Amaranthus Kill Percentage, Assessed 14 DAT, Metribuzin rate 200 g/ha): 74%
A (A is inhibition above 30%) | Cc1cccc(NS(=O)(=O)c2ccc(NC(=O)Nc3ccc([N+](=O)[O-])cc3)cc2)c1 [Compound A-98, 4-(3-(4-nitrophenyl)ureido)-N-(m-tolyl)benzenesulfonamide] | 
D (D is inhibition of 0% to 10%) | CCCC(=O)Nc1cccc(NS(=O)(=O)c2ccc(CCC)cc2)c1C [Compound A-118, N-(2-methyl-3-((4-propylphenyl)sulfonamido)phenyl)butyramide] | 
C (C is inhibition from 10% to 20%) | Cc1cccc(NS(=O)(=O)c2ccc(Cl)cc2)c1 [Compound A-56, 4-chloro-N-(m-tolyl)benzenesulfonamide] | 
C (C is inhibition from 10% to 20%) | CCCc1ccc(S(=O)(=O)Nc2ccc(C)cc2Cl)cc1 [Compound A-82, N-(2-chloro-4-methylphenyl)-4-propylbenzenesulfonamide] | 
C (C is inhibition from 10% to 20%) | CCCc1ccc(S(=O)(=O)Nc2cccc(N3CCCC3=O)c2)cc1 [Compound A-7, N-(3-(2-oxopyrrolidin-1-yl)phenyl)-4-propylbenzenesulfonamide] | 
C (C is inhibition from 10% to 20%) | CCCc1ccc(S(=O)(=O)Nc2cc(Cl)ccc2OC)cc1 [Compound A-74, N-(5-chloro-2-methoxyphenyl)-4-propylbenzenesulfonamide] | 
D (D is inhibition of 0% to 10%) | O=S(=O)(Nc1nnc[nH]1)c1ccc(-c2ccccc2)cc1 [Compound A-13, N-(4H-1,2,4-triazol-3-yl)-[1,1′-biphenyl]-4-sulfonamide] | 
A (A is inhibition above 30%) | CCCc1ccc(S(=O)(=O)Nc2ccccc2NS(=O)(=O)c2ccc(F)cc2)cc1 [Compound A-94, 4-fluoro-N-(2-((4-propylphenyl)sulfonamido)phenyl)benzenesulfonamide] | 
D (D is inhibition of 0% to 10%) | CCCc1ccc(S(=O)(=O)Nc2ccccc2-n2cc(C(=O)OC)nn2)cc1 [Compound A-39, methyl 1-(2-((4-propylphenyl)sulfonamido)phenyl)-1H-1,2,3-triazole-4-carboxylate] | 
C (C is inhibition from 10% to 20%) | CCCc1ccc(S(=O)(=O)Nc2cc(Cl)ccc2-n2cncn2)cc1 [Compound A-122, N-(5-chloro-2-(1H-1,2,4-triazol-1-yl)phenyl)-4-propylbenzenesulfonamide] | 
D (D is inhibition of 0% to 10%) | CCCc1ccc(S(=O)(=O)Nc2cc(C(=O)OC)ccc2S(N)(=O)=O)cc1 [Compound A-25, methyl 3-((4-propylphenyl)sulfonamido)-4-sulfamoylbenzoate] | 
D (D is inhibition of 0% to 10%) | Cc1cccc(NS(=O)(=O)c2ccc(S(=O)(=O)N3CCCC3)cc2)c1 [Compound A-60, 4-(pyrrolidin-1-ylsulfonyl)-N-(m-tolyl)benzenesulfonamide] | 
A (A is inhibition above 30%) | CCCc1ccc(S(=O)(=O)Nc2ccc(S(=O)(=O)N(C)C3CCCCC3)cc2)cc1 [Compound A-79, N-cyclohexyl-N-methyl-4-((4-propylphenyl)sulfonamido) benzenesulfonamide] | 
C (C is inhibition from 10% to 20%) | CCCc1ccc(S(=O)(=O)Nc2ccc(S(=O)(=O)CC)cc2)cc1 [Compound A-32, N-(4-(ethylsulfonyl)phenyl)-4-propylbenzenesulfonamide] | 
B (B is inhibition from 20% to 30%) | CCCc1ccc(S(=O)(=O)Nc2c(C)cccc2C)cc1 [Compound A-92, N-(2,6-dimethylphenyl)-4-propylbenzenesulfonamide] | 
B (B is inhibition from 20% to 30%) | NC1CCN(S(=O)(=O)c2ccc(-c3ccccc3)cc2)CC1 [Compound A-33, 1-([1,1′-biphenyl]-4-ylsulfonyl)piperidin-4-amine] | 
D (D is inhibition of 0% to 10%) | CCCc1ccc(S(=O)(=O)Nc2cccc(C(=O)O)c2)cc1 [Compound A-75, 3-((4-propylphenyl)sulfonamido) benzoic acid] | 
D (D is inhibition of 0% to 10%) | CCCc1ccc(S(=O)(=O)Nc2ccc(Cl)c(NC(C)=O)c2)cc1 [Compound A-119, N-(2-chloro-5-((4-propylphenyl)sulfonamido)phenyl)acetamide] | 
D (D is inhibition of 0% to 10%) | CCCc1ccc(S(=O)(=O)Nc2ccccc2C(N)=O)cc1 [Compound A-86, 2-((4-propylphenyl)sulfonamido) benzamide] | 
C (C is inhibition from 10% to 20%) | CCCc1ccc(S(=O)(=O)Nc2ccc(O)c(NC(C)=O)c2)cc1 [Compound A-38, N-(2-hydroxy-5-((4-propylphenyl)sulfonamido)phenyl)acetamide] | 

SMILES | Inhibition (apyrase) | further results
Cc1ccccc1NS(=O)(=O)c1ccc(-c2ccccc2)cc1 [Compound A-9, N-(o-tolyl)-[1,1′-biphenyl]-4-sulfonamide] | A (A is inhibition above 30%) | Amistar (% control of the disease, compound + fungicide) [1]: 65.5%; Balaya (% control of the disease, compound + fungicide) [1]: 54.9%; Imtrex (% control of the disease, compound + fungicide) [1]: −13.9%; Proline (% control of the disease, compound + fungicide) [1]: 12.4%
CN(c1ccccc1)S(=O)(=O)c1ccc(-c2ccccc2)cc1 [Compound A-10, N-methyl-N-phenyl-[1,1′-biphenyl]-4-sulfonamide] | A (A is inhibition above 30%) | Amistar (% control of the disease, compound + fungicide) [1]: 87.4%; Balaya (% control of the disease, compound + fungicide) [1]: 56.5%; Imtrex (% control of the disease, compound + fungicide) [1]: 15.0%; Proline (% control of the disease, compound + fungicide) [1]: 4.2%
Cc1cccc(NS(=O)(=O)c2ccc(C3CCCCC3)cc2)c1 [Compound A-64, 4-cyclohexyl-N-(m-tolyl)benzenesulfonamide] | A (A is inhibition above 30%) | Amistar (% control of the disease, compound + fungicide) [1]: 69.5%; Balaya (% control of the disease, compound + fungicide) [1]: −75.9%; Imtrex (% control of the disease, compound + fungicide) [1]: −15.4%; Proline (% control of the disease, compound + fungicide) [1]: 2.9%
